Laboratory results reported in patent US4988681A, “Phosphinic acid derivatives” (Banyu Pharmaceutical Co., Ltd., priority 1988, dated 1991).

Legend:
[1] = system: ddY mice; experiment: Acute toxicity test in mice; format: in vivo, Male ddY mice; details: 7 days
Procedure: (5) Acute toxicity test in mice
Male ddY mice (4 week-old; body weight 24-26 g) were divided into groups each consisting of 5 animals. The compound No. 2 was intravenously administered to a first group in a dose of 2,000 mg/kg. The compound No. 2 was orally administered to a second group in a dose of 4,000 mg/kg. After the administration, the incidence of death was observed over 7 days after the administration, and the results are shown in Table 5.

[2] = Pharmacokinetic evaluation: plasma concentration in dogs; format: in vivo, Male beagle dogs; details: dog; for concentration at 0.5 h: 1/2 h; for concentration at 0.25 h: 1/4 h; for concentration at 5 min: 1/12 h; for AUC: trapezoidal rule
Procedure: Male beagle dogs (14 month-old) were divided into groups each having three animals. The compound No. 2 was administered intravenously to a first group in a dose of 10 mg/kg. The compound No. 2 was orally administered to a second group in a dose of 10 mg/kg. Then at the points of 1/12, 1/4, 1/2, 1, 2, 4, 6, 8, 24 and 48 hours after the administration, plasma samples were taken periodically from the cephalic vein, and the plasma concentrations of the compounds were measured by an enzyme assay using porcine DHP-I. The results are shown in Table 4-b. The area under the curve (AUC) of the plasma level was determined according to the trapezoidal rule.

[3] = Pharmacokinetic evaluation: plasma concentration in rats; format: in vivo, Male SD rats; details: plasma, rat; for AUC: trapezoidal rule; for concentration at 0.5 h: 1/2 h; for concentration at 0.25 h: 1/4 h; for concentration at 5 min: 1/12 h
Procedure: (4) Pharmacokinetic evaluations
Male SD rats ([…]) were divided into groups each consisting of three animals. […] Furthermore, cilastatin was intravenously administered to a 14th group as a control group.
Plasma samples were taken periodically from the carotid artery through a cannula inserted into it at the points of 1/12, 1/4, 1/2, 1, 2, 4, 6, 8 and 24 hours after the administration.
The area under the curve (AUC) of the plasma concentration was determined according to the trapezoidal rule.

[4] = system: nephrotoxicity induced by imipenem; experiment: Protective action on nephrotoxicity induced by imipenem in rabbits; format: in vivo, male Japanese white rabbits; details: compound 150 mg/kg + imipenem 150 mg/kg
Procedure: (3) Protective action on nephrotoxicity induced by carbapenem antibiotics
Twelve male Japanese white rabbits (18 week-old; body weight 3.19-3.54 kg) were divided into three groups each consisting of 4 animals. Imipenem alone was administered in a dose of 150 mg/kg to a first group. To a second group, a combination of imipenem (150 mg/kg) and the compound No. 2 (150 mg/kg) was administered. To a third group as a control, sterilized physiological saline was administered. In all cases, the administration was effected through the auricular vein. Forty-eight hours later, a blood sample was taken from each of the animals, and the BUN and creatinine values were measured. The kidneys of the rabbits were taken and examined histopathologically.

[5] = Effect on urinary recovery of carbapenem (imipenem) in rats; format: in vivo, Male SD rats; details: urine up to 8 hours, n = 3
Procedure: (2) Effect on urinary recovery of carbapenem
Male SD rats (8 week-old) were grouped, three per group. Imipenem alone was intravenously administered in a dose of 10 mg/kg to a first group. […] For comparison, a combination of imipenem (10 mg/kg) and cilastatin (10 mg/kg) was intravenously administered to a fourth group.
The urinary recovery of imipenem was calculated.

[6] = iv 10 mg/kg (cilastatin dose not given)

## CC(C)CP(=O)(O)C/C(=C\C1CCCCC1)C(=O)O [Compound No. 2, (Z)-3-cyclohexyl-2-(hydroxyisobutylphosphinoyl)methylpropenoic acid]
[1]; i.v. 2,000 mg/kg
  Mortality, number of dead mice versus number of mice tested: 0/5
[1]; p.o. 4,000 mg/kg
  Mortality, number of dead mice versus number of mice tested: 0/5
[2]; iv 10 mg/kg
  concentration at 0.5 h: 52.2 µg/mL
  concentration at 0.25 h: 71 µg/mL
  concentration at 5 min: 87.3 µg/mL
  concentration at 1 h: 40.8 µg/mL
  concentration at 2 h: 24.5 µg/mL
  concentration at 4 h: 6.7 µg/mL
  concentration at 6 h: 2.4 µg/mL
  concentration at 8 h: 1.2 µg/mL
  concentration at 24 h: 0.1 µg/mL
  AUC: 144 µg·h/mL
[2]; po 10 mg/kg
  concentration at 0.5 h: 5.8 µg/mL
  concentration at 0.25 h: 3 µg/mL
  concentration at 5 min: 0.5 µg/mL
  concentration at 1 h: 9.6 µg/mL
  concentration at 2 h: 7.8 µg/mL
  concentration at 4 h: 3.1 µg/mL
  concentration at 6 h: 1.6 µg/mL
  concentration at 8 h: 0.7 µg/mL
  concentration at 24 h: 0.7 µg/mL
  AUC: 51.5 µg·h/mL
[3]; [6]
  AUC: 162 µg·h/mL
  concentration at 0.5 h: 53.7 µg/mL
  concentration at 0.25 h: 60.7 µg/mL
  concentration at 5 min: 84.9 µg/mL
[3]; po 10 mg/kg
  AUC: 24.3 µg·h/mL
  concentration at 0.5 h: 6.8 µg/mL
  concentration at 0.25 h: 6.6 µg/mL
  concentration at 5 min: 3.3 µg/mL
  concentration at 1 h: 5.4 µg/mL
  concentration at 2 h: 3.8 µg/mL
  concentration at 4 h: 2.1 µg/mL
  concentration at 6 h: 1.2 µg/mL
[3]; iv 10 mg/kg (cilastatin dose not given), N.D.: below the detection limit
  concentration at 1 h: 42.4 µg/mL
[3]; iv 10 mg/kg
  concentration at 2 h: 21.8 µg/mL
  concentration at 4 h: 10.5 µg/mL
  concentration at 8 h: 2.5 µg/mL
[3]; iv 10 mg/kg, N.D.: below the detection limit
  concentration at 6 h: 5.4 µg/mL
[3]; po 10 mg/kg, N.D.: below the detection limit
  concentration at 8 h: 0.4 µg/mL
[4]
  Necrosis of the kidney tissue, number of rabbits which necrotized versus number tested: 0/4
[4]; auricular vein, 48 hours
  BUN: 16.2 mg/100 ml
  Creatinine: 1.49 mg/dL
[4]; grade in words
  Necrosis of the kidney tissue: None
[5]; inhibitor 10 mg/kg iv with imipenem 10 mg/kg iv
  Urinary recovery of imipenem, Mean ± S.D.: 95.3 ± 6.1%
[5]; inhibitor 10 mg/kg po 30 minutes before imipenem 10 mg/kg iv
  Urinary recovery of imipenem, Mean ± S.D.: 52.1 ± 4.9%
